Experimental data: patent publication US20260374818A1, “CATIONIC PEPTIDES WITH BROAD SPECTRUM ACTIVITY” (priority 2023, published 2026)
In brackets after ≈: the same amount, converted by molar mass. Where a SMILES comes first, the peptide text is derived from it. [ ]: non-standard residue; d: D form.

Tests used:
[1] = tested on: MRSA biofilms (USA300 LAC); conditions: SPOT peptides
[2] = tested on: P. aeruginosa PAO1 biofilms; conditions: P. aeruginosa PAO1 biofilms; >95% pure peptides; crystal violet; BM2 minimal media
[3] = tested on: P. aeruginosa PAO1 biofilms; experiment: Biofilm inhibition by SPOT-synthesized AB103-D variants (crystal violet), P. aeruginosa; type: cell-based, Pseudomonas aeruginosa; conditions: P. aeruginosa PAO1, SPOT peptides
[4] = tested on: P. aeruginosa PAO1; experiment: MIC (broth microdilution) of peptides, P. aeruginosa; type: cell-based, Pseudomonas aeruginosa; conditions: mode of three biological replicates
Description: (§1) Minimal inhibitory concentration (MIC) against planktonic bacteria: The MIC of the synthetic peptides was determined in Mueller-Hinton broth (MHB) using the broth microdilution method described previously [Wiegand, I., Hilpert, K., & Hancock, R. E. (2008). Agar and broth dilution methods to determine the minimal inhibitory concentration (MIC) of antimicrobial substances. Nature Protocols, 3(2), 163-175]. Briefly, 10 μl of a 10× concentrated peptide solution was placed in the bottom of a well in a 96-well polypropylene round bottom plate (Corning Inc.). A bacterial suspension of ~5×10^5 CFU/ml was prepared from an overnight culture and 90 μl of this was added to each well. […] Bacteria tested included P. aeruginosa PAO1, MRSA USA300 LAC, Staphylococcus haemolyticus, Staphylococcus epidermidis, Klebsiella pneumoniae and Streptococcus salivarius.
(§2) Finally, the AB103-D derivatives that were the least aggregation prone and which produced the lowest toxic effects in vivo were evaluated for their direct antibacterial activity towards several pathogens of clinical relevance using a standard minimum inhibitory concentration (MIC) assay [Wiegand, I., Hilpert, K., & Hancock, R. E. (2008). Agar and broth dilution methods to determine the minimal inhibitory concentration (MIC) of antimicrobial substances. Nature Protocols, 3(2), 163-175]. Specifically, peptides AB110-D, AB111-D, AB114-D and AB115-D were tested against P. aeruginosa PAO1, MRSA USA 300, Staphylococcus haemolyticus, Staphylococcus epidermidis, Klebsiella pneumoniae and Streptococcus salivarius and compared against the antibacterial activity of DJK-5 and AB103-D (Table 7). Overall, the antibacterial potency of all of the AB103-D derivatives was stronger than that seen for DJK-5, particularly in the case of the Gram-negative pathogens P. aeruginosa and K. pneumoniae. […]

[5] = tested on: MRSA USA 300; experiment: MIC (broth microdilution) of peptides, MRSA; type: cell-based, methicillin resistant Staphylococcus aureus; conditions: MRSA USA300; mode of three biological replicates
Description: as §1, §2

[6] = tested on: MRSA USA300 biofilms; experiment: Biofilm inhibition by >95% pure peptides (crystal violet), MRSA; type: cell-based, methicillin resistant Staphylococcus aureus; conditions: MRSA USA300 biofilms, >95% pure peptides, 10% TSB + 0.1% glucose
[7] = Subdermal murine toxicity model; conditions: for Average cyst size compared to DJK-5: 16 hours after administration, 4 mg/kg; for Clinical score: 1 hour after subcutaneous administration, comparator DJK-5
Description: FIGS. 14A-14B show murine subdermal toxicity assessment of AB103-D derived peptides. Clinical scores were recorded for each peptide treated mouse one hour after peptide administration (FIG. 14A). […] The presence of a cyst or lesion was recorded 16 hours after peptide administration and the size of the cyst was measured using calipers (FIG. 14B). Data shown are the mean of two independent replicates at a peptide dose of 4 mg/kg.
Subdermal murine toxicity model: A subdermal toxicity mouse model was used to evaluate whether peptides induced localized toxicity of treated cutaneous tissue. Mice were anesthetized with 2.5-3% isoflurane and their fur was removed by shaving followed by application of a chemical depilatory. […] Mice were visually assessed and received clinical scores for a battery of signs or symptoms (activity/behaviour change, appearance/grooming, hydration, pain, cyst formation), for which a score of zero was given to animals that appeared normal. Animals were weighed and clinical scores were totalled. Following an overnight (16 h) incubation, mice were scored and weighed then euthanized with CO2 followed by cervical dislocation. Mice were imaged and cysts (swollen, inflamed tissue) were measured using a caliper. Animal experiments were performed in accordance with the Canadian Council on Animal Care (CCAC) guidelines and were approved by the University of British Columbia Animal Care Committee. Female CD-1 mice were purchased from Charles River Laboratories, Inc. (Wilmington, MA). All mice were 8 weeks of age and weighed 25±5 g at the time of the experiment. Animals were group housed in cohorts of three to four littermates. Standard animal husbandry practices were employed.

[8] = tested on: Staphylococcus haemolyticus; experiment: MIC (broth microdilution) of peptides, S. haemolyticus; type: cell-based; conditions: mode of three biological replicates
Description: as §1, §2

[9] = tested on: Klebsiella pneumoniae; experiment: MIC (broth microdilution) of peptides, K. pneumoniae; type: cell-based; conditions: mode of three biological replicates
Description: as §1, §2

[10] = tested on: Staphylococcus epidermidis; experiment: MIC (broth microdilution) of peptides, S. epidermidis; type: cell-based; conditions: mode of three biological replicates
Description: as §1, §2

[11] = tested on: Streptococcus salivarius; experiment: MIC (broth microdilution) of peptides, S. salivarius; type: cell-based; conditions: mode of three biological replicates
Description: as §1, §2

[12] = Peptide aggregation in RPMI + 10% FBS with PBMCs (microscopy); type: physicochemical; conditions: 50 μg/ml, overnight
Description: Peptide Aggregation: Peptide aggregation was assessed qualitatively by examining samples of peptides mixed with PBMCs following overnight incubation at 37 °C and 5% CO2. All samples were prepared in RPMI media containing 10% FBS the same manner as the cytotoxicity assays described above. Visualization of aggregates was done using a Nikon Eclipse TS100 Inverted Microscope at 10× magnification.
In aggregation studies, peptides were added to PBMCs in RPMI media containing 10% FBS and incubated overnight at 37 °C in 5% CO2.
The peptides were also evaluated for their tendency to aggregate when added to RPMI tissue culture media containing 10% fetal bovine serum in the presence of PBMCs. Peptides were added to PBMCs in RPMI media containing 10% FBS and incubated overnight at 37 °C in 5% CO2. […] Compared to a highly aggregation prone peptide, 1018 [Haney, E. F., et al. (2017). Aggregation and its influence on the immunomodulatory activity of synthetic innate defense regulator peptides.
As with the DJK-5 derivatives above, the AB103-D derivatives were evaluated for their tendency to aggregate when added to RPMI tissue culture media containing 10% fetal bovine serum in the presence of PBMCs. Peptides were added to PBMCs in RPMI media containing 10% FBS and incubated overnight at 37 °C in 5% CO2.

[13] = tested on: E. coli O157:H7; experiment: Biofilm inhibition (at least 80%), E. coli; type: cell-based, Escherichia coli; conditions: n = 3, BM2 minimal media, 18-24 hours, crystal violet
[14] = tested on: MRSA USA300; experiment: Biofilm inhibition (at least 80%), MRSA; type: cell-based, methicillin resistant Staphylococcus aureus; conditions: n = 4, 10% TSB + 0.1% glucose, 18-24 hours, crystal violet
[15] = tested on: P. aeruginosa PAO1; experiment: Biofilm inhibition (at least 80%), P. aeruginosa; type: cell-based, Pseudomonas aeruginosa; conditions: n = 4, BM2 minimal media, 18-24 hours, crystal violet
[16] = tested on: Acinetobacter baumannii Ab5075; experiment: Biofilm inhibition (at least 80%), A. baumannii; type: cell-based; conditions: n = 4, BM2 minimal media, 18-24 hours, crystal violet
[17] = tested on: Enterobacter cloacae 218R1; experiment: Biofilm inhibition (at least 80%), E. cloacae; type: cell-based; conditions: E. cloacae 218R1; n = 3; BM2 minimal media; 18-24 hours; crystal violet
[18] = tested on: Enterococcus faecium #2-1; experiment: Biofilm inhibition (at least 80%), E. faecium; type: cell-based; conditions: E. faecium #2-1; n = 3; TSB + 1% glucose; 48 hours; crystal violet
[19] = tested on: Klebsiella pneumonia KPLN649; experiment: Biofilm inhibition (at least 80%), K. pneumonia; type: cell-based; conditions: K. pneumoniae KPLN649; n = 3; BM2 minimal media; 48 hours; crystal violet

| Compound | minimum inhibitory concentration of peptide that inhibited at least 90% of biofilm growth (MBIC90) [2] | Activity against PAO1 biofilms compared to AB103-D [3] | MIC [4] | MIC [5] | minimum inhibitory concentration of peptide that inhibited at least 90% of biofilm growth (MBIC90) [6] | Average cyst size compared to DJK-5 [7] | MIC [8] | Clinical score [7] | Peptide/Antibiotic Concentration where at least 80% of biofilm growth was inhibited [13] | Peptide/Antibiotic Concentration where at least 80% of biofilm growth was inhibited [14] | Peptide/Antibiotic Concentration where at least 80% of biofilm growth was inhibited [15] | Peptide/Antibiotic Concentration where at least 80% of biofilm growth was inhibited [16] | also measured |
| --- | --- | --- | --- | --- | --- | --- | --- | --- | --- | --- | --- | --- | --- |
| CC[C@@H](C)[C@@H](NC(=O)[C@H](NC(=O)[C@@H](CCCNC(=N)N)NC(=O)[C@H](NC(=O)[C@@H](CCCNC(=N)N)NC(=O)[C@H](NC(=O)[C@H](NC(=O)[C@@H](CCCNC(=N)N)NC(=O)[C@@H](Cc1c[nH]c2ccccc12)NC(=O)[C@@H](CCC(N)=O)NC(=O)[C@H](N)C(C)C)C(C)C)[C@H](C)CC)C(C)C)C(C)C)C(=O)N[C@H](CCCNC(=N)N)C(N)=O [AB108-D, vqwrvirvrvir-NH2] (H-[dV][dQ][dW][dR][dV][dI][dR][dV][dR][dV][dI][dR]-NH2) | – | – | – | – | – | – | – | – | – | – | – | – | Biofilm inhibitory activity compared to DJK5 ([1]; MRSA, three concentrations (FIG. 1)): only slightly lower than the DJK5 sample |
| CC[C@@H](C)[C@@H](NC(=O)[C@@H](C)NC(=O)[C@@H](CCCNC(=N)N)NC(=O)[C@@H](Cc1c[nH]c2ccccc12)NC(=O)[C@@H](CCC(N)=O)NC(=O)[C@H](NC(=O)[C@@H](CCCNC(=N)N)NC(=O)[C@H](NC(=O)[C@@H](Cc1c[nH]c2ccccc12)NC(=O)[C@@H](CCCNC(=N)N)NC(=O)[C@H](NC(=O)[C@H](N)CCCNC(=N)N)C(C)C)[C@H](C)CC)C(C)C)C(N)=O [AB110-D, rvrwirvqwrai] (H-[dR][dV][dR][dW][dI][dR][dV][dQ][dW][dR][dA][dI]-NH2) | 4 µM | activity superior to that of AB103-D | 2 µg/mL (≈ 1.22 µM) | 0.8 µg/mL (≈ 0.488 µM) | 1 µM | smaller than those induced by DJK-5 | 0.8 µg/mL (≈ 0.488 µM) | – | – | – | – | – | – |
| CC[C@@H](C)[C@@H](NC(=O)[C@@H](C)NC(=O)[C@@H](CCCNC(=N)N)NC(=O)[C@@H](CC(C)C)NC(=O)[C@@H](CCC(N)=O)NC(=O)[C@H](NC(=O)[C@@H](CCCNC(=N)N)NC(=O)[C@H](NC(=O)[C@H](NC(=O)[C@@H](CCCNC(=N)N)NC(=O)[C@H](NC(=O)[C@H](N)CCCNC(=N)N)C(C)C)C(C)C)[C@H](C)CC)C(C)C)C(N)=O [AB115-D, rvrvirvqlrai] (H-[dR][dV][dR][dV][dI][dR][dV][dQ][dL][dR][dA][dI]-NH2) | 8 µM | – | 2 µg/mL (≈ 1.35 µM) | 0.8 µg/mL (≈ 0.541 µM) | 1 µM | smaller than those induced by DJK-5 | 0.8 µg/mL (≈ 0.541 µM) | < 2 | – | – | – | – | MIC [9]: 0.8 µg/mL (≈ 0.541 µM); MIC [10]: 0.8 µg/mL (≈ 0.541 µM); MIC [11]: 0.8 µg/mL (≈ 0.541 µM) |
| CC[C@@H](C)[C@@H](NC(=O)[C@@H](C)NC(=O)[C@@H](CCCNC(=N)N)NC(=O)[C@@H](Cc1c[nH]c2ccccc12)NC(=O)[C@@H](CCC(N)=O)NC(=O)[C@H](NC(=O)[C@@H](CCCNC(=N)N)NC(=O)[C@H](NC(=O)[C@H](NC(=O)[C@@H](CCCNC(=N)N)NC(=O)[C@H](NC(=O)[C@H](N)CCCCN)C(C)C)C(C)C)[C@H](C)CC)C(C)C)C(N)=O [AB117-D, kvrvirvqwrai] (H-[dK][dV][dR][dV][dI][dR][dV][dQ][dW][dR][dA][dI]-NH2) | 8 µM | activity superior to that of AB103-D | – | – | 0.5 µM | – | – | < 2 | – | – | – | – | Better activity vs. MRSA cf. AB103-D ([1]; MRSA biofilms): ~2 fold; Peptide aggregation [12]: slightly |
| O=C(O)c1cn(C2CC2)c2cc(N3CCNCC3)c(F)cc2c1=O [CIP] | – | – | – | – | – | – | – | – | 0.0625 µg/mL | 8 µg/mL | 0.125 µg/mL | 32 µg/mL | – |
| CN[C@H](CC(C)C)C(=O)N[C@H]1C(=O)N[C@@H](CC(N)=O)C(=O)N[C@H]2C(=O)N[C@H]3C(=O)N[C@H](C(=O)N[C@H](C(=O)O)c4cc(O)cc(O)c4-c4cc3ccc4O)[C@H](O)c3ccc(c(Cl)c3)Oc3cc2cc(c3O[C@@H]2O[C@H](CO)[C@@H](O)[C@H](O)[C@H]2O[C@H]2C[C@](C)(N)[C@H](O)[C@H](C)O2)Oc2ccc(cc2Cl)[C@H]1O [VAN] | – | – | – | – | – | – | – | – | 16 µg/mL | 0.25 µg/mL | >256 µg/mL | 8 µg/mL | Peptide/Antibiotic Concentration where at least 80% of biofilm growth was inhibited [17]: 64 µg/mL; Peptide/Antibiotic Concentration where at least 80% of biofilm growth was inhibited [18]: >256 µg/mL; Peptide/Antibiotic Concentration where at least 80% of biofilm growth was inhibited [19]: 128 µg/mL |
